Results: patent US11759435B2, “Dihydrochalcone derivatives influencing inflammatory states” (SYMRISE AG, priority 2016, dated 2023)

Tested on: IL-8 release by HGF-1 cells
Experiment: Anti-inflammatory action in HGF-1 cells: IL-8 release after PG-LPS stimulation (Example TS1)
Type: cell-based
Details: Homo sapiens, co-incubation with 10 μg/ml PG-LPS, 6 h, % IL-8 release vs PG-LPS control, read-out: IL-8 T/C [%]
Description: Anti-inflammatory action in human gingival fibroblastic cells (HGF-1)
DMEM containing 10% FBS, 1% penicillin/streptomycin and 4% glutamine was used as the medium. For determination of the anti-inflammatory action the cells were incubated with 10 μg/ml PG-LPS for 6 hrs. […] In each case 4 samples with two technical replicates were measured. In addition to this control the cells were co-incubated with
(a) 10 μg/ml PG-LPS and also with
After incubation the cell culture medium was transferred into an Eppendorf reaction vessel and at 4° C. for 10 min subjected to centrifugation (1000×g) in order to separate the cell debris. The supernatant was stored at −80° C. until analysis.

SMILES: O=C(CCc1ccc(O)cc1)c1c(O)cc(O)cc1O [Compound 4]
- activity at 1 µM (HGF1, 1 μM test compound): 106%
- activity at 100 µM (HGF1, 100 μM test compound): 50%
